Read-outs that look alike come from different tables or passages of the source.
Legend:
PPB = type: in vitro ADME; settings: plasma
[1] = Pharmacokinetics of intraperitoneal or intravenous injection in CD1 mice; type: in vivo; settings: for concentration at 0.25 h / concentration at 0.5 h / concentration at 1 h / concentration at 2 h / concentration at 4 h / concentration at 8 h / concentration at 24 h / AUC(0-t) / half-life / concentration at 0.033 h / concentration at 0.083 h: male, CD1, mouse, plasma
Method in brief: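 Male CD1 mice, 6-8 weeks old, 3 per group, dosed IV (5 s injection; 10% HP-b-CD, 40 mM sodium acetate, 40 mM NaCl, pH 4.5) or IP (5% EtOH, 5% Solutol HS15 in D5W). Serial dorsal metatarsal vein blood, terminal heart puncture; plasma analysed by LC/MS/MS after acetonitrile precipitation, calibration 1-2000 ng/mL.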

[2] = IV 1.0 mg/kg, CD1 mice plasma, 24 h
[3] = ip, 10 mg/kg, IP 10 mg/kg, CD1 mice plasma, read-out: Conc. (ng/mL) Mouse 1
[4] = ip, 10 mg/kg, IP 10 mg/kg, CD1 mice plasma, read-out: Conc. (ng/mL) Mouse 2
[5] = ip, 10 mg/kg, IP 10 mg/kg, CD1 mice plasma, read-out: Conc. (ng/mL) Mouse 3
[6] = ip, 10 mg/kg, IP 10 mg/kg, CD1 mice plasma, read-out: Mean
[7] = iv, 1 mg/kg, IV 1.0 mg/kg, CD1 mice plasma, read-out: Conc. (ng/mL) Mouse 1
[8] = iv, 1 mg/kg, IV 1.0 mg/kg, CD1 mice plasma, read-out: Conc. (ng/mL) Mouse 2
[9] = iv, 1 mg/kg, IV 1.0 mg/kg, CD1 mice plasma, read-out: Conc. (ng/mL) Mouse 3
[10] = iv, 1 mg/kg, IV 1.0 mg/kg, CD1 mice plasma, read-out: Mean

fraction unbound (PPB): 0.0022
Conc. (ng/mL) Mouse 2 ([1]; IP 10 mg/kg, CD1 mice plasma, 24 h): BLOQ
Conc. (ng/mL) Mouse 1 [1, 2]: BLOQ
Conc. (ng/mL) Mouse 2 [1, 2]: BLOQ
Conc. (ng/mL) Mouse 3 [1, 2]: BLOQ
concentration at 0.25 h [1, 3]: 877 ng/mL
concentration at 0.25 h [1, 4]: 494 ng/mL
concentration at 0.25 h [1, 5]: 562 ng/mL
concentration at 0.25 h [1, 6]: 645 ng/mL
concentration at 0.5 h [1, 3]: 842 ng/mL
concentration at 0.5 h [1, 4]: 639 ng/mL
concentration at 0.5 h [1, 5]: 608 ng/mL
concentration at 0.5 h [1, 6]: 696 ng/mL
concentration at 1 h [1, 3]: 2010 ng/mL
concentration at 1 h [1, 4]: 2460 ng/mL
concentration at 1 h [1, 5]: 1230 ng/mL
concentration at 1 h [1, 6]: 1900 ng/mL
concentration at 2 h [1, 3]: 2130 ng/mL
concentration at 2 h [1, 4]: 3300 ng/mL
concentration at 2 h [1, 5]: 826 ng/mL
concentration at 2 h [1, 6]: 2090 ng/mL
concentration at 4 h [1, 3]: 1260 ng/mL
concentration at 4 h [1, 4]: 1210 ng/mL
concentration at 4 h [1, 5]: 768 ng/mL
concentration at 4 h [1, 6]: 1080 ng/mL
concentration at 8 h [1, 3]: 321 ng/mL
concentration at 8 h [1, 4]: 68.5 ng/mL
concentration at 8 h [1, 5]: 306 ng/mL
concentration at 8 h [1, 6]: 232 ng/mL
concentration at 24 h ([1]; ip, 10 mg/kg, IP 10 mg/kg, CD1 mice plasma, 24 h, read-out: Conc. (ng/mL) Mouse 1): 0.824 ng/mL
concentration at 24 h ([1]; ip, 10 mg/kg, IP 10 mg/kg, CD1 mice plasma, 24 h, read-out: Conc. (ng/mL) Mouse 3): 4.5 ng/mL
concentration at 24 h ([1]; ip, 10 mg/kg, IP 10 mg/kg, CD1 mice plasma, 24 h, read-out: Mean): 2.66 ng/mL
AUC(0-t) ([1]; ip, 10 mg/kg, read-out: AUClast (h * ng/mL) IP): 10400 ng·h/mL
half-life ([1]; ip, 10 mg/kg, read-out: T ½ (h) IP (converted)): 1.87 h
concentration at 0.033 h [1, 7]: 4370 ng/mL
concentration at 0.033 h [1, 8]: 3940 ng/mL
concentration at 0.033 h [1, 9]: 4020 ng/mL
concentration at 0.033 h [1, 10]: 4110 ng/mL
concentration at 0.083 h [1, 7]: 1660 ng/mL
concentration at 0.083 h [1, 8]: 1730 ng/mL
concentration at 0.083 h [1, 9]: 1820 ng/mL
concentration at 0.083 h [1, 10]: 1740 ng/mL
concentration at 0.25 h [1, 7]: 376 ng/mL
concentration at 0.25 h [1, 8]: 382 ng/mL
concentration at 0.25 h [1, 9]: 395 ng/mL
concentration at 0.25 h [1, 10]: 384 ng/mL
concentration at 0.5 h [1, 7]: 140 ng/mL
concentration at 0.5 h [1, 8]: 132 ng/mL
concentration at 0.5 h [1, 9]: 135 ng/mL
concentration at 0.5 h [1, 10]: 136 ng/mL
concentration at 1 h [1, 7]: 52.1 ng/mL
concentration at 1 h [1, 8]: 58.8 ng/mL
concentration at 1 h [1, 9]: 57.5 ng/mL
concentration at 1 h [1, 10]: 56.2 ng/mL
concentration at 2 h [1, 7]: 36.1 ng/mL
concentration at 2 h [1, 8]: 27.7 ng/mL
concentration at 2 h [1, 9]: 32.1 ng/mL
concentration at 2 h [1, 10]: 32 ng/mL
concentration at 4 h [1, 7]: 10.8 ng/mL
concentration at 4 h [1, 8]: 12.9 ng/mL
concentration at 4 h [1, 9]: 13 ng/mL
concentration at 4 h [1, 10]: 12.3 ng/mL
concentration at 8 h [1, 7]: 2.33 ng/mL
concentration at 8 h [1, 8]: 8.35 ng/mL
concentration at 8 h [1, 9]: 4.11 ng/mL
concentration at 8 h [1, 10]: 4.93 ng/mL
AUC(0-t) ([1]; iv, 1 mg/kg, read-out: AUClast (h * ng/mL) IV): 747 ng·h/mL
half-life ([1]; iv, 1 mg/kg, read-out: T ½ (h) IV (converted)): 2.44 h
Structure (SMILES): Cc1ncsc1-c1ccc(CNC(=O)[C@@H]2C[C@@H](O)CN2C(=O)[C@@H](NC(=O)CCOCCCOc2ccc(Nc3ncc(C(F)(F)F)c(NCc4cccc(N(C)S(C)(=O)=O)c4)n3)cc2)C(C)(C)C)cc1 [Compound 103, (2S,4R)-1-((S)-3,3-dimethyl-2-(3-(3-(4-((4-((3-(N-methylmethylsulfonamido)benzyl)amino)-5-(trifluoromethyl)pyrimidin-2-yl)amino)phenoxy)propoxy)propanamido)butanoyl)-4-hydroxy-N-(4-(4-methylthiazol-5-yl)benzyl)pyrrolidine-2-carboxamide]

— patent US20200038513A1, “MODULATORS OF FAK PROTEOLYSIS AND ASSOCIATED METHODS OF USE” (ARVINAS OPERATIONS, INC., priority 2018, published 2020)
